“Also recorded” adds a separate entry of the source.
Key:
[1] = system: Zucker diabetic fatty rats (ZDF rats); test: Glycemic control in Zucker diabetic fatty rats, 16-day dosing plus two-week washout; format: in vivo, rat
Description: The present examples provides the ability of Compound 10 to restore glycemic control to diabetic Zucker diabetic fatty rats (ZDF rats, genotype ZDF-Lepr^fa/Crl; Charles River). Cornicelli et al., 2005, Charles River.
Control and test compounds were stored at 4° C. and prepared weekly as needed. The vehicle for positive control pioglitazone was 0.25% carboxymethylcellulose and 1% Tween® 80 in reverse osmosis deionized water. The vehicle for Compound 10 was 10% DMSO, 10% Solutol HS 15, and 80% (10% hydroxypropyl-β-cyclodextrin in 50 mM citrate buffer at pH 3.0).
On Day −3, twenty-four ZDF rats (plus eight spare ZDF rats) were measured for body weight and non-fasting glucose. LabDiet 5008 was provided ad libitum throughout the study, except during designated procedures, as was water. In order to minimize the effects of stress on blood glucose and body, all animals including the spares received daily sham doses with phosphate buffered saline pH 7.2 (dose volume 5 mL/kg) via gavage beginning on Study Day −5 to Day −1.
Vehicle, control, and test compound were administered via oral gavage according to the following design on Days 1-16.
On Days −3, 1, 8, and 14 non-fasting blood glucose was measured. On Day 15, an oral glucose tolerance test was administered. The animals were weighed, and the animals were placed in clean cages without food. Access to water was provided throughout the procedure. The animals were fasted for five hours and a blood glucose measurement was determined. The animals were dosed via oral gavage with 2 g/kg glucose (10 mL/kg). Blood glucose was determined via tail snip. The second drop of blood from the animal was placed on a hand-held glucometer (Abbott Alpha Trak) at the following times relative to the glucose dose: zero (just prior to glucose dose), 15, 30, 60, 90, and 120 min. Following the final blood glucose measurement, food was returned to the cages. On Day 17, 4-hour fasting glucose was measured. Serum samples were used to measure insulin by ELISA. Analysis was performed in one to three days of each collections. On Day 17, terminal blood collection was obtained at about 8 mL per animal and measured for blood glucose.
ZDF rats were treated daily with Compound 10, vehicle, or pioglitazone for sixteen days and monitored for an additional two weeks post-treatment until Day 29. STZ rat models were induced through pre-treatment of animals on a high-fat diet with low doses of streptozotocin at Day −14 and Day −7 prior to starting treatment at Day Zero until Day 16. ZDF and STZ rats were monitored for fasting blood glucose levels, oral glucose tolerance test (OGTT), insulin and C-peptide levels, HOMA-IR (Homeostatic Model Assessment of Insulin Resistance), blood lipemic levels, and body weight according to the schematic for each model below. ZDF rats were analyzed for indicated readouts for fifteen days post-treatment for OGTT at Day 29, and serum insulin and C-peptide at Day 31.
ZDF Rat Model—three treatment groups 1. Vehicle; 2. Compound 10 at 175 mg/kg; and 3. Pioglitazone at 30 mg/kg; n=10 per group. Daily dosing zero to sixteen days QD→drug wash out at sixteen to twenty-nine days. Rats were monitored for the following parameters through dosing and wash out phases—body weight, fasting blood sugar, blood insulin, C-peptide, and OGTT.

DOHH2 = test: DLBCL cell line proliferation (Cell Titer Glo, four days): DOHH2; format: cell-based; settings: DOHH2, DHL, MYC/BCL2
Description: DLBCL cell line TOLEDO was cultured in the presence of Compound A or clinical reversible menin inhibitors for six and fourteen hours. Menin protein expression was reduced up to 60% at 1 μM by Compound A after fourteen hours compared to clinical reversible inhibitors at <20% at similar concentrations. Menin protein expression was measured by the Wes system and analyzed using the Compass software (automated western blotting, Protein Simple). Signal was normalized to GAPDH and referenced to DMSO control (FIG. 36E). DLBCL and MM cell lines were cultured with Compound A, bortezomib (PS-341), or DMSO for four days and cell proliferation was measured by Cell Titer Glo. Ex vivo studies of DLBCL and MM models were conducted by measurement of cell proliferation (Cell Titer Glo) after six days of treatment with Compound A, PS-341, or DMSO control.

[2] = ZDF rats, 175 mg/kg/day PO QD, compared to vehicle and control

C=CC(=O)N[C@@H]1CCCN(Cc2ccnc(C(=O)Nc3ccc(-c4cc5c(N6CCOCC6)ncnc5[nH]4)cc3)c2)C1 [Compound A, N-[4-[4-(4-morpholinyl)-7H-pyrrolo[2,3-d]pyrimidin-6-yl]phenyl]-4-[[3(R)-[(1-oxo-2-propen-1-yl)amino]-1-piperidinyl]methyl]-2-pyridinecarboxamide]
glucose, non-fasting and fasting states [1, 2]: significant reduction of glucose
insulin, non-fasting and fasting states [1, 2]: significant reduction of insulin
insulin resistance (HOMA-IR) ([1]; ZDF rats, 175 mg/kg/day PO QD, non-fasting and fasting, vs vehicle, listed as Compound 10, 175 mg/kg/day): significant reduction of insulin resistance; also recorded: reduced HOMA-IR
OGTT AUC reduction ([1]; ZDF rats, Day 15, p<0.001): 54%
oral glucose tolerance test, glucose control ([1]; ZDF rats, Day 29, after fourteen days of no treatment): significant glucose control
OGTT AUC reduction ([1]; ZDF rats, Day 29, drug washout, ~two weeks after the last dose, p<0.05): 40%
oral glucose tolerance test, glucose control ([1]; ZDF rats, after fifteen days of treatment (Day 15)): significant glucose control
reduction in fasting and non-fasting blood glucose levels ([1]; ZDF rats, after two weeks of treatment): ~50%
serum insulin and C-peptide levels ([1]; ZDF rats, after two weeks of treatment, p<0.05): significantly reduced
4-hour fasting insulin and glucose after washout ([1]; ZDF rats, no therapy for two weeks): increasing insulin and glucose lowering
insulin sensitivity ([1]; ZDF rats, sixteen days treatment (FIG. 26)): increases insulin sensitivity
C-peptide ([1]; ZDF rats, two weeks after therapy): increasing C-peptide
blood lipemic levels and body weight ([1]; treated ZDF rats, sixteen days (FIG. 27)): significantly reduces blood lipemic levels and reduces body weight
Average % Max Inhibition by Compound A (DOHH2): 99.7%

— patent publication US20240417404A1, “CRYSTALLINE FORMS OF N-[4-[4-(4-MORPHOLINYL)-7H-PYRROLO[2,3-d]PYRIMIDIN-6-YL]PHENYL]-4-[[3(R)-[(1-OXO-2-PROPEN-1-YL)AMINO]-1-[sequence]]METHYL]-2-PYRIDINECARBOXAMIDE AS IRREVERSIBLE INHIBITORS OF MENIN-MLL INTERACTION” (BIOMEA FUSION, INC., priority 2023, published 2024)
